Paper PMC3975032, “ATPase Activity and ATP-dependent Conformational Change in the Co-chaperone HSP70/HSP90-organizing Protein (HOP)” (The Journal of Biological Chemistry, 2014)
pKd: −log10 of the molar value.

Columns and labels:
[1] = biological target: T1, HOP-(1-543), full-length human HSP70/HSP90-organizing protein (Homo sapiens, UniProt P31948); assay: protection from TPCK-trypsin digestion, SDS-PAGE; format: binding; conditions: 25 mM HEPES-KOH pH 7.4, 5 mM MgCl2, 100 mM KCl, 37 °C, 30 min
T1 construct: gene STIP1; full-length 1-543, His6-tagged (pCold I), E. coli BL21, Ni-NTA and Superdex 200; monomer

[2] = biological target: T2, HOP-(1-543), full-length human HSP70/HSP90-organizing protein (Homo sapiens, UniProt P31948, D186A); assay: ATP hydrolysis rate versus ATP concentration; format: biochemical; conditions: 25 mM HEPES-KOH pH 7.4, 5 mM MgCl2, 50 mM KCl, 37 °C
T2 construct: gene STIP1; full-length 1-543, His6-tagged (pCold I), E. coli BL21, Ni-NTA and Superdex 200; monomer

[3] = biological target: T1, HOP-(1-543), full-length human HSP70/HSP90-organizing protein; assay: 1H NMR titration (ATP H2/H8 shifts), non-linear fit; format: binding
[4] = biological target: T3, HOP-(1-359), TPR1-TPR2A (ATPase domain) (Homo sapiens, UniProt P31948); assay: 1H NMR chemical shift change (protein amide region); format: binding; conditions: 20 mM potassium phosphate pH 6.5, 50 mM KCl, 5 mM MgCl2, 25 °C, 10-fold molar excess ATP
T3 construct: gene STIP1; TPR1-DP1-TPR2A segment, residues 1-359, His6-tagged (pCold I), E. coli BL21
T3 sequence (P31948 1-359): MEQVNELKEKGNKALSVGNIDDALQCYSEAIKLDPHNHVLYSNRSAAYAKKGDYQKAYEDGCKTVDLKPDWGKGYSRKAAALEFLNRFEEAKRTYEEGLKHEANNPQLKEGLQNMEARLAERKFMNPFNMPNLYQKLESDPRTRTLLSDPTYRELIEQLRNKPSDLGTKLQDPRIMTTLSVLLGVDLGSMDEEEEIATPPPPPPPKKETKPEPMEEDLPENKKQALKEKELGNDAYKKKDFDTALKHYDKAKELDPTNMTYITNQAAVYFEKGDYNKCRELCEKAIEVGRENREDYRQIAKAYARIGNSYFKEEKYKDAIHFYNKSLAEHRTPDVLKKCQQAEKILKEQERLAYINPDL

T1 sequence (P31948 whole entry): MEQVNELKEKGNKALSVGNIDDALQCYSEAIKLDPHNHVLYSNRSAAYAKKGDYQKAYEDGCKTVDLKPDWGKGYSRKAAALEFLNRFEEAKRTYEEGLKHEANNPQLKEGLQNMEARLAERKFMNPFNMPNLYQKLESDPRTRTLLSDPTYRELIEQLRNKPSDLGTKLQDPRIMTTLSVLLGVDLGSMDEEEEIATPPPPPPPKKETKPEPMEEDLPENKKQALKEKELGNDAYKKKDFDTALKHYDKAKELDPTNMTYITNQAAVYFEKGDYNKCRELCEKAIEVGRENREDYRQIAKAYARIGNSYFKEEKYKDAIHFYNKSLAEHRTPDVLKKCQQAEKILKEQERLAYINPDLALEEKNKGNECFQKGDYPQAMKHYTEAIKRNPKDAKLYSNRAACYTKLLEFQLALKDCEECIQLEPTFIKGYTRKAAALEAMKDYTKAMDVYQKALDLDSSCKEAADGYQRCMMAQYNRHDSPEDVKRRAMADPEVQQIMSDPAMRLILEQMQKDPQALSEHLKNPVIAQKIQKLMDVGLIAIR
T2 sequence (P31948 whole entry D186A): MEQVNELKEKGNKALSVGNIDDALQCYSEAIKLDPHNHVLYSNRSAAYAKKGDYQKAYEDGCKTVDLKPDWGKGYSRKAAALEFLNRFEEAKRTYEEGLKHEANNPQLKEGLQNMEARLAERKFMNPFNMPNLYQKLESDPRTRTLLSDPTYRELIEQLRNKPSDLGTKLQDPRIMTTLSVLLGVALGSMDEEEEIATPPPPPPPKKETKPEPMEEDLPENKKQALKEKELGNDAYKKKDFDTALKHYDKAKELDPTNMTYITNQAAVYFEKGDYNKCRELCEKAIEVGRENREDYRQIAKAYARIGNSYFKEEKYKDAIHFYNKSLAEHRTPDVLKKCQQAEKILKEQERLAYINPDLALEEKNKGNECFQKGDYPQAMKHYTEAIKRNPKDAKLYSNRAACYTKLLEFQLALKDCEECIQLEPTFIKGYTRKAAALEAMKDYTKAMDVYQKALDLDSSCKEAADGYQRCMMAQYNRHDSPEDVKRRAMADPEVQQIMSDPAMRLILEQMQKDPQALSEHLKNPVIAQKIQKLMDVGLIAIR

protection efficiency at 5 mM [1] [%] | pKd [3] | Structure (SMILES) | ATP hydrolysis rate versus ATP concentration [2] | 1H NMR chemical shift change (protein amide region) [4]
31.0 ± 8.9 | – | Nc1ncnc2c1ncn2[C@@H]1O[C@H](COP(=O)(O)OP(=O)(O)O)[C@@H](O)[C@H]1O [ADP] | – | –
28.6 ± 10.1 | – | Nc1ncnc2c1ncn2[C@@H]1O[C@H](COP(=O)(O)OP(=O)(O)NP(=O)(O)O)[C@@H](O)[C@H]1O [AMP-PNP, adenosine 5′-(β,γ-imino)triphosphate] | – | –
– | 3.46 | Nc1ncnc2c1ncn2[C@@H]1O[C@H](COP(=O)(O)OP(=O)(O)OP(=O)(O)O)[C@@H](O)[C@H]1O [ATP] | this mutation caused no significant change in ATPase activity | These data indicated that ATP directly binds the ATPase domain of HOP
